Where “and” joins values, the source holds several entries; their conditions need not be identical. Equal entries are not always repeated.
What was measured:
[1] = test system: SARS-COV-2 (NTU13); assay: Plaque reduction assay in Vero E6 cells; format: cell-based; conditions: 1 μM RDV*
[2] = test system: HuS-E/2 cells; assay: Cell viability of HuS-E/2 cells (MTT assay); format: cell-based; conditions: 0-1000 μg/ml AR100-DS1 for 48 h
[3] = test system: HepG2.2.15 cells; assay: Cell viability of HepG2.2.15 cells; format: cell-based
[4] = test system: HBV; assay: HBV DNA level in the culture medium of HepG2.2.15 cells (real-time PCR); format: cell-based, Hepatitis B virus (HBV)
Source text: (§1) Continuous HBV proliferation can be achieved in HepG2.2.15 cells (RRID:CVCL_L855) stably transfected with the HBV genome of the adw2 subtype. HepG2.2.15 cells are used because of the unlimited supply and constant quality and were maintained in Dulbecco's modified Eagle medium (DMEM; Invitrogen) supplemented with 10% heat-inactivated fetal bovine serum (FBS; Thermo) plus 100 units of penicillin and […] of streptomycin per ml (both from Invitrogen).
The culture medium from drug-treated HepG2.2.15 cells is clarified by centrifugation at 1,000× g at 4° C. for 10 min, and then the supernatant is layered on top of a 20% sucrose cushion (20% sucrose, 20 mM HEPES, pH 7:4, 0.1% bovine serum albumin [BSA]) and centrifuged at 197,000× g for 3 h at 4° C. to pellet the HBV particles, which are then concentrated 100 fold to detect HBV DNA.
Total DNA is extracted with a Genomic DNA isolation kit (Nexttee Biotechnologie, Germany). Total RNA is isolated from cultured cells using TRIzol® reagent (Invitrogen). […] The results are analyzed with the iCycler iQ real-time PCR detection system (Bio-Rad). […]
(§2) To test whether AR100-DS1 had any effect on HBV genome replication, assembly, or secretion, HepG2.2.15 cells that were stably transfected with HBV genome, were used to incubate with AR 100-DS1 for 48 hours, then HBsAg and HBV DNA collected from medium were measured by ELISA and real-time PCR.

[5] = test system: HBV; assay: HBsAg secretion of HepG2.2.15 cells (ELISA); format: cell-based, Hepatitis B virus (HBV)
Source text: as §1, §2

[6] = test system: HBV; assay: HBV infectivity/entry in HuS-E/2 cells (HBsAg ELISA, HBV mRNA real-time PCR); format: cell-based, Hepatitis B virus (HBV)
[7] = HuS-E/2 cells, 0, 5 and 10 of AR100-DS1 during infection for 18 h, then 48 hours

Row | Compound | Inhibition (%) to DMSO mean [1] [%] | Inhibition (%) to virus mean [1] [%] | Plaque number per well mean [1] | cell viability [2] | cell viability [3] | HBV DNA level in medium ([4]; 20 μg/ml AR100-DS1, 48 hours) | HBV DNA level in medium ([4]; 40 μg/ml AR100-DS1, 48 hours) | secretion of HBsAg ([5]; 0, 20 and 40 μg/ml AR100-DS1, HepG2.2.15 cells (FIG. 1C)) | secretion of HBsAg reduced to ([5]; 10 μg/ml AR100-DS1, 48 hours, HepG2.2.15 cells) [%] | secretion of HBsAg reduced to ([5]; 20 μg/ml AR100-DS1, 48 hours, HepG2.2.15 cells (FIGS. 1A and 1B)) | secretion of HBsAg reduced to ([5]; 50 μg/ml AR100-DS1, 48 hours, HepG2.2.15 cells) [%] | entry of HBV in HuS-E/2 cells ([6]; HuS-E/2 cells) | HBV mRNA expression level [6, 7] | secretion of HBsAg in the medium [6, 7]
1 | CCC(CC)COC(=O)[C@H](C)N[P@](=O)(OC[C@H]1O[C@@](C#N)(c2ccc3c(N)ncnn23)[C@H](O)[C@@H]1O)Oc1ccccc1 [RDV, remdesivir] | 80 | 82 | 32 | – | – | – | – | – | – | – | – | – | – | –
2 | C=C1C(=O)O[C@H]2/C=C(\C)CC3C=C(CC/C=C(\C)CC[C@H]12)C(=O)O3 (some centres unmarked) [AR100-DS1] | – | – | – | marked dose-dependent reduction in cell viability | marked dose-dependent reduction in cell viability | significantly reduced | significantly reduced | significantly inhibited | 75.25 | 69.77% and 63.00% | 56.78 | could not prevent HBV entering into HuS-E/2 cells | neither secretion of HBsAg in the medium nor HBV mRNA expression level showed dose-dependent reduction | neither secretion of HBsAg in the medium nor HBV mRNA expression level showed dose-dependent reduction
